# Measured values: article PMC12916490 (Molecular Psychiatry, 2025)
# What was measured:
# h5-HT2A [1] = biological target: T1, h5-HT2A (Homo sapiens, UniProt P28223); assay: IP1 formation (Gαq-mediated signaling), h5-HT2A; type: cell-based; parameters: expressed in transfected cells; host or cells: HEK 293 cells (membrane preparation); settings: for Emax: read-out: IP1 formation Emax h5-HT2A (95% CI)
# h5-HT2A [2] = biological target: T1, h5-HT2A; assay: Arachidonic acid release (Gαi/o,12/13 marker), h5-HT2A; type: cell-based; parameters: expressed in transfected cells; host or cells: HEK 293 cells (membrane preparation); settings: for Emax: read-out: Arachidonic acid release Emax h5-HT2A (95% CI)
# Description: Activation of h5-HT2A, h5-HT2B, and h5-HT2C receptors was examined by measuring the accumulation of inositol monophosphate (IP1) as a marker for Gαq-mediated signaling. For h5-HT2A, additional assays measured β-arrestin 2 recruitment and arachidonic acid release, the latter serving as a marker of Gαi/o,12/13 activation. The methodology is described in detail in the Supplementary information.
# The IC50 values from the radioligand binding assays were determined by nonlinear regression, using three independent concentration-response curves fitted to a one-site model. The Cheng-Prusoff equation was used to calculate Kᵢ values for the competing ligands. EC50 values were determined by applying nonlinear regression to concentration-response curves. Bias factors (β) were calculated based on the relative intrinsic activity approach. More detailed information can be found in the Supplementary information. Mean values for total number of HTR, change in body temperature from pre to post session (Δ°C), and total distance traveled (cm) for each drug dose were compared (p < 0.05) via Welch’s ANOVA with Dunnett’s T3 post test, comparing all doses to respective vehicle controls (0 mg/kg). Welch’s ANOVA with Dunnett’s T3 post test was also used to compare drug concentrations, but the data were compared to DOM in this case. Dose–response relationships for HTR and locomotor activities were plotted using bell-shaped curve fits, while temperature change data were plotted using four-parameter non-linear regression curve fits. The ascending phase of the HTR curve for each drug was used to determine ED50 potency values from four parameter non-linear regression fits. For combined DOM and DOAM administration, the plasma, brain tissue, and brain dialysate drug concentrations were compared using paired t-tests (p < 0.05). […]
# the β-arrestin 2 molecule in the NanoBiT system) were seeded at a density of 50,000 cells per well in poly - D-lysine-coated 96-well plates in medium containing 10% dialyzed FBS. The plate was then incubated at […]
# The following day, the cells were washed twice with 150 µL HBSS, and 100 µL HBSS was subsequently added to each well. Thereafter, 25 µL of substrate (1 :20 diluted in buffer) was added, and […]
# agonist solutions was added, and the signal was monitored for 2 h. Drug dilutions in HBSS were made from 10 mM stock solutions in DMSO , yielding concentration ranges from 10 µM to 10 pM. All concentrations were run in duplicate and included the appropriate solvent controls. Efficacy was normalized to 5 -HT […]
# 3.2.3 Arachidonic acid release
# Arachidonic acid release was assessed as a marker for Gαi/o,12/13 mediated signaling.
# NIH/3T3 cells stably expressing the 5 -HT2A receptor were seeded at a density of 75,000 cells per well in a poly-D-lysine-coated 48-well plate. The following day, the cells were labeled with 300 μL [ 3H]arachidonic […]
# Thereafter, the cells were washed 3 times for
# (10 mM) of test substances were prepared in DMSO. The final dilution series of test substances dissolved […]
# Thereafter, the plate was put on ice, and 400 μL incubation supernatant per well was transferred int o scintillation vials containing scintillation fluid (Ultimagold, Perkin Elmer, Schwerzenbach, Switzerland). The remaining supernatant was removed, and the cells were lysed with 1% sodium dodecyl sulfate lysis buffer. The obtained cell lysate was transferred into scintillation vials containing scintillation fluid. Radioactivity was measured on a liquid scintillation counter (Packard 1900 TR Tri-Carb Liquid Scintillation Counter; Packard Instrument Company). Efficacy was normalized to 5-HT activity.
# 3.2.4 Calculation of bias factors […]
# using 5-HT as the reference agonist.
# RApathway = EC50, i = EC50, ref×Emax,i […]
# h5-HT2B = h5-HT2B (Homo sapiens, UniProt P41595); assay: Radioligand binding, h5-HT2B receptor ([3H]LSD)
# Chain of h5-HT2B (P41595 whole entry): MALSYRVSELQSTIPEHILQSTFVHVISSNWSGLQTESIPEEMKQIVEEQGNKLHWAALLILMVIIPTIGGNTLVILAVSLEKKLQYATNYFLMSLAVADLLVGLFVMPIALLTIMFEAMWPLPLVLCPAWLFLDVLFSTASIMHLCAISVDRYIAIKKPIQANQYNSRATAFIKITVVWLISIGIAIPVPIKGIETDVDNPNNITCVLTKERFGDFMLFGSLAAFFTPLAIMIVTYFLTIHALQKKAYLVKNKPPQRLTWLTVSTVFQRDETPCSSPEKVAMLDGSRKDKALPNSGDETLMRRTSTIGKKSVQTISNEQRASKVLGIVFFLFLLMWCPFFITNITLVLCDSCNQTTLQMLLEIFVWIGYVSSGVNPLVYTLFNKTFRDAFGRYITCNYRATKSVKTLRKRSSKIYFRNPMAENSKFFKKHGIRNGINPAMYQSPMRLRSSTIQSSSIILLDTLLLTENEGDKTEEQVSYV
# T1 sequence (P28223 whole entry, looked up): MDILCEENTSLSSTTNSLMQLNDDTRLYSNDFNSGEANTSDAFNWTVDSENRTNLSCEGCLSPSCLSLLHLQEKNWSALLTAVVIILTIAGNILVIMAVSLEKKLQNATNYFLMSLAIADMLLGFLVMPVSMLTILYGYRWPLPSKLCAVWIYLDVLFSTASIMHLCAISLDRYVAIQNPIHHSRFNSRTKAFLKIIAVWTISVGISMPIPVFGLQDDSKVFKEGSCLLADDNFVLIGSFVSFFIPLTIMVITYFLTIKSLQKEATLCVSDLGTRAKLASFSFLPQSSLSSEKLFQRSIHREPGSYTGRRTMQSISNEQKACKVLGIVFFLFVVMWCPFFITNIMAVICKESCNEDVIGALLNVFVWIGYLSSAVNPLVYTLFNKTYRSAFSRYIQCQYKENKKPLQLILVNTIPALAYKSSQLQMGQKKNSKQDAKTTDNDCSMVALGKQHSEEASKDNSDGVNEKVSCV
Structure (SMILES),EC50 (h5-HT2A [1]) [nM],Emax (h5-HT2A [1]) [%],EC50 (h5-HT2A [2]) [nM],Emax (h5-HT2A [2]) [%],Ki (h5-HT2B) [nM],Agonist type for Gαq signaling at the 5-HT2A receptor (h5-HT2A [1]),"Agonist type for Gαi/o,12/13-mediated signaling at the 5-HT2A receptor (h5-HT2A [2])"
"CCCc1cc(OC)c(CC(C)N)cc1OC.Cl (stereo not shown) [DOPR, 4-propyl-2,5-dimethoxyamphetamine hydrochloride]",1.9,96,0.86,117,126,–,–
"CCCCCc1cc(OC)c(CC(C)N)cc1OC (stereo not shown) [DOAM, 4-amyl-2,5-dimethoxyamphetamine]",8.1,83,2.4,91,98,high efficacy partial agonists,high efficacy partial agonists
"COc1ccc(OC)c(CC(C)N)c1.Cl (stereo not shown) [2,5-DMA, 2,5-Dimethoxyamphetamine hydrochloride]",–,99,–,59,5180,–,high efficacy partial agonists
"COc1cc(CC(C)N)c(OC)cc1C (stereo not shown) [DOM, 4-methyl-2,5-dimethoxyamphetamine]",21,92,3.7,75,149,high efficacy partial agonists,high efficacy partial agonists
"CCCCc1cc(OC)c(CC(C)N)cc1OC (stereo not shown) [DOBU, 4-butyl-2,5-dimethoxyamphetamine]",2.8,90,2,74,162,high efficacy partial agonists,high efficacy partial agonists
"CCc1cc(OC)c(CC(C)N)cc1OC (stereo not shown) [DOET, 4-ethyl-2,5-dimethoxyamphetamine]",12,93,1.5,88,174,high efficacy partial agonists,high efficacy partial agonists
